Assays:
Mus musculus [1] = test: (§1) Neuroprotective activity in transgenic C57/BL6 mouse amyotrophic lateral sclerosis model harboring SOD1 G93A mutant assessed as decrease in misfolded SOD1 levels in spinal cord at 4 mg/kg, ip administered twice weekly started from postnatal day 40 until disease end stage by immunoprecipitation method relative to control; type: functional; parameters: scale not given: the % may be the effect or the level left
[2] = as §1, with “upregulation of HSP70” for “decrease in misfolded SOD1”, “Western blot” for “immunoprecipitation”; type: functional, organism-based
[3] = as §1, with “upregulation of HSP25” for “decrease in misfolded SOD1”, “Western blot” for “immunoprecipitation”; type: functional, organism-based
Mus musculus [4] = test: Neuroprotective activity in transgenic mouse amyotrophic lateral sclerosis model harboring SOD1 G93A mutant assessed as death of motor neurons in lumbar spinal cord at 10 mg/kg, po measured at 7 days post disease onset by immunostaining method (reference value: 58%); type: functional
Mus musculus [5] = test: Neuroprotective activity in transgenic mouse amyotrophic lateral sclerosis model harboring SOD1 G93A mutant assessed as death of motor neurons in lumbar spinal cord at 4 mg/kg, ip administered every other day started from postnatal day 40 until disease end stage by immunostaining method (reference value: 71%); type: functional
Mus musculus [6] = test: Neuroprotective activity in transgenic mouse amyotrophic lateral sclerosis model harboring human SOD1 H46R mutant assessed as ChAT-positive motor neurons loss in anterior horn at 0.5 mg/kg, ig administered daily starting at day of disease onset until disease end stage by immunostaining method (reference value: 43%); type: functional
Mus musculus [7] = test: Neuroprotective activity in transgenic mouse amyotrophic lateral sclerosis model harboring human SOD1 H46R mutant assessed as increase in survival rate at 0.1 mg/kg, ig administered daily starting at day of disease onset until disease end stage relative to control; type: functional
Mus musculus [8] = test: Neuroprotective activity in transgenic mouse amyotrophic lateral sclerosis model harboring human SOD1 H46R mutant assessed as increase in survival rate at 0.5 mg/kg, ig administered daily starting at day of disease onset until disease end stage relative to control; type: functional
Mus musculus [9] = test: (§2) Neuroprotective activity in transgenic mouse amyotrophic lateral sclerosis model harboring SOD1 G94A mutant assessed as prolongation of survival at 10 ug/kg, administered through gastric tube daily started between day 88 to 106 of disease onset until disease end stage relative to control; type: functional
Mus musculus [10] = test: as §2, with “harboring human” for “harboring”, “H46R” for “G94A”, “1 to 100” for “10”, “121” for “88”, “130” for “106”; type: functional, Stomach
Mus musculus [11] = test: Neuroprotective activity in transgenic mouse amyotrophic lateral sclerosis model harboring SOD1 G93A mutant assessed as increase in survival rate at 60 mg/kg, administered via oral gavage started from first day of symptomatic onset until disease end stage relative to control; type: functional

`CC1=C(CO)C(=O)O[C@@H]([C@@H](C)[C@H]2CC[C@H]3[C@@H]4C[C@H]5O[C@]56[C@@H](O)C=CC(=O)[C@]6(C)[C@H]4CC[C@]23C)C1` [WITHAFERIN A] showed an Activity (Mus musculus [1]) of 39%, a fold change (FC) [2] of 2.2 and a fold change (FC) [3] of 2.6.
For `O=C(/C=C/c1ccc(O)c(O)c1)OCCc1ccccc1` [CAFFEIC ACID PHENETHYL ESTER], the Activity (Mus musculus [4]) was 10%.
In the case of `N=C(N)N/N=C/c1c(Cl)cccc1Cl` [GUANABENZ], the Activity (Mus musculus [5]) is reported as 44%.
With `Cc1cc(C)c(OCC(=O)Nc2nc(-c3ccccn3)cs2)c(C)c1` the Activity (Mus musculus [6]) was 23%, the Activity (Mus musculus [7]) was 11% and the Activity (Mus musculus [8]) was 16%.
`Cc1cc(C)c(N(C)CC(=O)Nc2nc(-c3ccccn3)c[nH]2)c(C)c1.Cl.Cl.Cl` gave an Activity (Mus musculus [9]) of 14% and an Activity (Mus musculus [10]) of 20%.
With `CCCCC1OC(=O)c2ccccc21` (racemic) [RAC-3-N-BUTYLPHTHALIDE] the Activity (Mus musculus [11]) was 42%.

Reference: ChEMBL document CHEMBL3853271, “Recent progress towards an effective treatment of amyotrophic lateral sclerosis using the SOD1 mouse model in a preclinical setting” (2016)
